Assay results from US20250319067A1, “Improved Pharmacokinetics of Tryptamine Prodrugs” (Reunion Neuroscience, Inc., priority 2023, published 2025).

Tested on: healthy females
Assay: Phase 1 FIH study: modified Drug Effect Questionnaire (DEQ-High)
Assay type: in vivo, human
Parameters: mean time to peak DEQ-High score: dose or concentration left out as unconfirmed
Protocol: The study was a double-blind, randomized, placebo-controlled Phase 1 single ascending dose study in up to 6 cohorts in healthy females. Eligibility was assessed during a screening period of up to 28 days prior to enrollment. For the treatment period, subjects were admitted to the clinical research unit (CRU) one day prior to the dosing (Day −1). On Day 1, all subjects will received the assigned SC dose of RE104 HCl or placebo in a fed state (after domiciling overnight and consuming a planned evening meal on Day −1 and morning meal on Day 1 while at the CRU). Subjects were allowed to select snacks from a planned menu from 4 hours following dosing. Subjects were discharged from the clinic on Day 2 (−24 hours post-dose) after all required study procedures were completed and if deemed medically fit. Subjects returned to the clinic on Day 10 (±2 days) for a follow up visit.
The Drug Effect Questionnaire (DEQ) Feel/High is widely used in studies of acute subjective response to a variety of substances, to assess two key aspects of subjective experience: (1) the strength of substance effects and (2) desirability of substance effects (Morean et al., 2013). The modified DEQ assesses the extent to which subjects (1) feel any substance effect(s) and (2) feel high. This version of the DEQ includes the following items: “Do you feel a drug effect right now?” (FEEL); “Are you high right now?” (HIGH). FIG. 2 sets out the modified DEQ that was used.
The modified DEQ was used as an 11-point numeric rating scale (0-10) administered by a qualified staff member. The subjects were asked to verbally respond to indicate how strongly they feel the drug effect and how high they feel on the scale of 0-10 after being administered the study drug (Kollltveit et al., 2020).

For `CC(C)N(CCc1c[nH]c2cccc(OC(=O)CCCC(=O)O)c12)C(C)C` [RE104], the “mean time to peak DEQ-High score” value was 1.1 h, the “Mean Experience Duration” value (33 mg) was 3.7 h and the “DEQ-High score, all participants” value (4 hours post dose) was 51.
